Laboratory results published in patent publication US20230072421A1, “TARGETED RADIOPHARMACEUTICALS FOR THE DIAGNOSIS AND TREATMENT OF PROSTATE CANCER” (Bayer AS, priority 2019, published 2023).

Experiments:
[1] = Biodistribution study in LNCaP tumor-bearing mice (Th227 counted in organs); assay type: in vivo, SCID mice
How it was run: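 SCID mice bearing testosterone pellets and subcutaneous LNCaP flank tumors (~50 mm^2) received a single intravenous dose of the radioactive compound. At set time points, n=3 animals were sacrificed, and organs were removed, weighed and counted for Th227 on a Germanium detector.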

VCaP cells = assay: Cell proliferation assay (CellTiter-Glo, 5-day exposure), VCaP; assay type: cell-based; conditions: 4000 cells/well, Th-227 labelled at 375 kBq/nmol, mean of 1 to 6 experiments
How it was run: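 Cells were plated (4000/well VCaP, 1000/well for the other lines), left overnight at 37 °C with 5% CO2, then exposed for 5 days to Thorium-227-labelled PSMA ligands. Viability before and after exposure was measured by CellTiter-Glo.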

LNCaP cells = assay: Cell proliferation assay (CellTiter-Glo, 5-day exposure), LNCaP; assay type: cell-based, human; conditions: LNCaP, 1000 cells/well; Th-227 labelled at 375 kBq/nmol; 5-day exposure; mean of 1 to 6 experiments
How it was run: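 Th-227-labelled PSMA ligands (375 kBq/nmol) serially diluted in triplicate on 22Rv1, C4-2, LNCaP (1000 cells/well) and VCaP (4000 cells/well) seeded overnight at 37 °C. Viability by CellTiter-Glo luminescence at treatment start (sister plates) and after 5-day exposure; dose-response curves fitted.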

O=C([O-])CN1CCN(CC(=O)[O-])CCN(CC(=O)NCC2CCC(C(=O)NC(Cc3ccc4ccccc4c3)C(=O)NCCCCC(NC(=O)NC(CCC(=O)O)C(=O)O)C(=O)O)CC2)CCN(CC(=O)[O-])CC1.[227Th+4] [Example 1-B-227Th, [^227Th]Thorium (3S,10S,14S)-3-[(naphthalen-2-yl)methyl]-1,4,12-trioxo-1-{(1r,4S)-4-[(2-{4,7,10-tris[(carboxy-kappaO)methyl]-1,4,7,10-tetraazacyclododecan-1-yl-kappa^4N^1,N^4,N^7,N^10}acetamido)methyl]cyclohexyl}-2,5,11,13-tetraazahexadecane-10,14,16-tricarboxylate]
Th-227 in Tumor ([1]; 6 hr, 500 kBq/kg, study b2999): 9.80 % ID Th-227/g organ | Th-227 in prostate ([1]; 6 hr, 500 kBq/kg, study b2999): 6.41 % ID Th-227/g organ | Th-227 in Blood ([1]; 24 h, 500 kBq/kg, study b2999): 0.01 % ID Th-227/g organ | Th-227 in Femur and tibia ([1]; 24 h, 500 kBq/kg, study b2999): 0.23 % ID Th-227/g organ | Th-227 in Kidneys ([1]; 24 h, 500 kBq/kg, study b2999): 26.81 % ID Th-227/g organ | Th-227 in Liver ([1]; 24 h, 500 kBq/kg, study b2999): 0.18 % ID Th-227/g organ | Th-227 in Salivary gland ([1]; 24 h, 500 kBq/kg, study b2999): 1.24 % ID Th-227/g organ | Th-227 in Spleen ([1]; 24 h, 500 kBq/kg, study b2999): 0.33 % ID Th-227/g organ | Th-227 in Tumor ([1]; 24 h, 500 kBq/kg, study b2999): 14.45 % ID Th-227/g organ | Th-227 in prostate ([1]; 24 h, 500 kBq/kg, study b2999): 0.00 % ID Th-227/g organ | Th-227 in Blood ([1]; 24 h, 1500 kBq/kg): 0.02% ID Th-227/g organ | Th-227 in Liver ([1]; 24 h, 1500 kBq/kg): 1.05% ID Th-227/g organ | Th-227 in Spleen ([1]; 24 h, 1500 kBq/kg): 1.24% ID Th-227/g organ | Th-227 in Tumor ([1]; 24 h, 1500 kBq/kg): 9.81% ID Th-227/g organ | Th-227 in bone ([1]; 24 h, 1500 kBq/kg): 9.38% ID Th-227/g organ | Th-227 in brain ([1]; 24 h, 1500 kBq/kg): 0.00% ID Th-227/g organ | Th-227 in kidney ([1]; 24 h, 1500 kBq/kg): 11.30% ID Th-227/g organ | Th-227 in large intestine ([1]; 24 h, 1500 kBq/kg): 0.12% ID Th-227/g organ | Th-227 in lung ([1]; 24 h, 1500 kBq/kg): 0.50% ID Th-227/g organ | Th-227 in muscle ([1]; 24 h, 1500 kBq/kg): 0.16% ID Th-227/g organ | Th-227 in prostate ([1]; 24 h, 1500 kBq/kg): 0.00% ID Th-227/g organ | Th-227 in salivary glands ([1]; 24 h, 1500 kBq/kg): 0.32% ID Th-227/g organ | Th-227 in small intestine ([1]; 24 h, 1500 kBq/kg): 0.23% ID Th-227/g organ | Th-227 in Blood ([1]; 72 h, 500 kBq/kg, study b2999): 0.00 % ID Th-227/g organ | Th-227 in Femur and tibia ([1]; 72 h, 500 kBq/kg, study b2999): 0.33 % ID Th-227/g organ | Th-227 in Kidneys ([1]; 72 h, 500 kBq/kg, study b2999): 19.30 % ID Th-227/g organ | Th-227 in Liver ([1]; 72 h, 500 kBq/kg, study b2999): 0.26 % ID Th-227/g organ | Th-227 in Salivary gland ([1]; 72 h, 500 kBq/kg, study b2999): 0.73 % ID Th-227/g organ | Th-227 in Spleen ([1]; 72 h, 500 kBq/kg, study b2999): 0.92 % ID Th-227/g organ | Th-227 in Tumor ([1]; 72 h, 500 kBq/kg, study b2999): 21.94 % ID Th-227/g organ | Th-227 in prostate ([1]; 72 h, 500 kBq/kg, study b2999): 0.00 % ID Th-227/g organ | Th-227 in Blood ([1]; 96 h, 1500 kBq/kg): 0.00% ID Th-227/g organ | Th-227 in Liver ([1]; 96 h, 1500 kBq/kg): 1.56% ID Th-227/g organ | Th-227 in Spleen ([1]; 96 h, 1500 kBq/kg): 2.79% ID Th-227/g organ | Th-227 in Tumor ([1]; 96 h, 1500 kBq/kg): 10.02% ID Th-227/g organ | Th-227 in bone ([1]; 96 h, 1500 kBq/kg): 10.31% ID Th-227/g organ | Th-227 in brain ([1]; 96 h, 1500 kBq/kg): 0.00% ID Th-227/g organ | Th-227 in kidney ([1]; 96 h, 1500 kBq/kg): 1.96% ID Th-227/g organ | Th-227 in large intestine ([1]; 96 h, 1500 kBq/kg): 0.12% ID Th-227/g organ | Th-227 in lung ([1]; 96 h, 1500 kBq/kg): 0.55% ID Th-227/g organ | Th-227 in muscle ([1]; 96 h, 1500 kBq/kg): 0.08% ID Th-227/g organ | Th-227 in prostate ([1]; 96 h, 1500 kBq/kg): 0.00% ID Th-227/g organ | Th-227 in salivary glands ([1]; 96 h, 1500 kBq/kg): 0.42% ID Th-227/g organ | Th-227 in small intestine ([1]; 96 h, 1500 kBq/kg): 0.21% ID Th-227/g organ | Th-227 in Blood ([1]; 168 h, 500 kBq/kg, study b2999): 0.00 % ID Th-227/g organ | Th-227 in Femur and tibia ([1]; 168 h, 500 kBq/kg, study b2999): 0.18 % ID Th-227/g organ | Th-227 in Kidneys ([1]; 168 h, 500 kBq/kg, study b2999): 3.56 % ID Th-227/g organ | Th-227 in Liver ([1]; 168 h, 500 kBq/kg, study b2999): 0.21 % ID Th-227/g organ | Th-227 in Salivary gland ([1]; 168 h, 500 kBq/kg, study b2999): 0.00 % ID Th-227/g organ | Th-227 in Spleen ([1]; 168 h, 500 kBq/kg, study b2999): 0.31 % ID Th-227/g organ | Th-227 in Tumor ([1]; 168 h, 500 kBq/kg, study b2999): 9.80 % ID Th-227/g organ | Th-227 in prostate ([1]; 168 h, 500 kBq/kg, study b2999): 0.00 % ID Th-227/g organ | Th-227 in Blood ([1]; 336 h, 500 kBq/kg, study b2999): 0.00 % ID Th-227/g organ | Th-227 in Femur and tibia ([1]; 336 h, 500 kBq/kg, study b2999): 0.25 % ID Th-227/g organ | Th-227 in Kidneys ([1]; 336 h, 500 kBq/kg, study b2999): 0.78 % ID Th-227/g organ | Th-227 in Liver ([1]; 336 h, 500 kBq/kg, study b2999): 0.17 % ID Th-227/g organ | Th-227 in Salivary gland ([1]; 336 h, 500 kBq/kg, study b2999): 0.00 % ID Th-227/g organ | Th-227 in Spleen ([1]; 336 h, 500 kBq/kg, study b2999): 0.15 % ID Th-227/g organ | Th-227 in Tumor ([1]; 336 h, 500 kBq/kg, study b2999): 7.78 % ID Th-227/g organ | Th-227 in prostate ([1]; 336 h, 500 kBq/kg, study b2999): 0.00 % ID Th-227/g organ | Proliferation assay on cancer cell lines by TTCs Default Pivot #3 IC50 [kBq/mL] VCap 4000cells 375kBq/nmol (mean) (VCaP cells): 0.38 kBq/mL | Proliferation assay on cancer cell lines by TTCs Default Pivot #3 IC50 [kBq/mL] LnCap 1000cells 375kBq/nmol (mean) (LNCaP cells): 0.03 kBq/mL
